Laboratory results: patent publication EP0461043A2, “Enantiomer separation by transesterification” (SEPRACOR, INC., priority 1990, dated 1991)
Structures can show the parent of a compound that is named as a salt.

Legend:
Water solubility = assay type: physicochemical; details: for solubility in water: esters, values given in mM; for water solubility: charged water-soluble reactant esters (salts), values given in M
[1] = L form relative to D form; cited from earlier work

COCCOC(=O)C(C)c1ccc(CC(C)C)cc1 (stereo not drawn) [methoxy-ethyl ester of Ibuprofen]
solubility in water (Water solubility): approximately 0.18 mM

CC(C)NCC(O)COc1cccc2ccccc12 (stereo not drawn) [L form of the beta blocker propranolol, propranolol]
times more potent than the D form [1]: 100 times

COc1ccc2cc(C(C)C(=O)OCC[N+](C)(C)C)ccc2c1 (racemic) [choline ester of 2-(6-methoxy-2-naphthyl) propanoic acid]
water solubility (Water solubility): 1610 mM

CCCCCCCCOC(=O)C(C)Cl (stereo not drawn) [octyl ester of 2-chloropropanoic acid]
solubility in water (Water solubility): about 1.2 mM

CC(C)Cc1ccc(C(C)C(=O)OCC[N+](C)(C)C)cc1 (stereo not drawn) [methyl sulfate salt of N,N,N-trimethylammonium ethyl ester of Ibuprofen]
water solubility (Water solubility): 2180 mM

CC(C)Cc1ccc(C(C)C(=O)O)cc1 (stereo not drawn) [Ibuprofen, 2-(p-isobutylphenyl) propanoic acid, reference compound]
water solubility at room temperature (Water solubility; acid forms, room temperature, varies with pH): single digit mM range
